Measurements: PubChem BioAssay (NCI)
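Method: 48-hour compound exposure of cells in 96-well plates, five concentrations, linear interpolation of endpoints. TGI denotes the concentration required for complete inhibition of growth.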

Experiments:
Assay in all cases: growth of human tumour cells (NCI), 48 h
A498 renal = test system: A498 renal
HT29 colon = test system: HT29 colon
RPMI-8226 leukemia = test system: RPMI-8226 leukemia
COLO 205 colon = test system: COLO 205 colon
RXF 393 renal = test system: RXF 393 renal
NCI-H460 lung = test system: NCI-H460 lung
MDA-MB-231 breast = test system: MDA-MB-231 breast
MCF7 breast = test system: MCF7 breast
DU-145 prostate = test system: DU-145 prostate
HOP-62 NSCLC = test system: HOP-62 NSCLC
IGROV1 ovarian = test system: IGROV1 ovarian
ACHN renal = test system: ACHN renal
UO-31 renal = test system: UO-31 renal
SR leukemia = test system: SR leukemia
SK-MEL-2 melanoma = test system: SK-MEL-2 melanoma
MOLT-4 leukemia = test system: MOLT-4 leukemia
SNB-19 CNS = test system: SNB-19 CNS
OVCAR-5 ovarian = test system: OVCAR-5 ovarian
SF-268 CNS = test system: SF-268 CNS
NCI/ADR-RES ovarian = test system: NCI/ADR-RES ovarian
HS 578T breast = test system: HS 578T breast
MDA-N = test system: MDA-N
NCI-H522 lung = test system: NCI-H522 lung
U251 CNS = test system: U251 CNS
OVCAR-8 ovarian = test system: OVCAR-8 ovarian
OVCAR-3 ovarian = test system: OVCAR-3 ovarian
SN12C renal = test system: SN12C renal
HOP-92 NSCLC = test system: HOP-92 NSCLC
786-0 renal = test system: 786-0 renal
T-47D breast = test system: T-47D breast
UACC-257 melanoma = test system: UACC-257 melanoma
K-562 leukemia = test system: K-562 leukemia
NCI-H23 lung = test system: NCI-H23 lung
SK-MEL-28 melanoma = test system: SK-MEL-28 melanoma
HCT-15 colon = test system: HCT-15 colon
BT-549 breast = test system: BT-549 breast
KM12 colon = test system: KM12 colon
M14 melanoma = test system: M14 melanoma
UACC-62 melanoma = test system: UACC-62 melanoma
PC-3 prostate = test system: PC-3 prostate
EKVX NSCLC = test system: EKVX NSCLC
SK-OV-3 ovarian = test system: SK-OV-3 ovarian
CCRF-CEM leukemia = test system: CCRF-CEM leukemia
SW-620 colon = test system: SW-620 colon
HCT-116 colon = test system: HCT-116 colon
NCI-H226 lung = test system: NCI-H226 lung
OVCAR-4 ovarian = test system: OVCAR-4 ovarian
MALME-3M melanoma = test system: MALME-3M melanoma
LOX IMVI melanoma = test system: LOX IMVI melanoma
SF-295 CNS = test system: SF-295 CNS
TK-10 renal = test system: TK-10 renal
MDA-MB-435 = test system: MDA-MB-435
SK-MEL-5 melanoma = test system: SK-MEL-5 melanoma
HCC-2998 colon = test system: HCC-2998 colon
SNB-75 CNS = test system: SNB-75 CNS
CAKI-1 renal = test system: CAKI-1 renal
A549 NSCLC = test system: A549 NSCLC
HL-60(TB) leukemia = test system: HL-60(TB) leukemia
SF-539 CNS = test system: SF-539 CNS

Question: For `CCc1ccc2[nH]c(O)c(C3=Nc4ccccc4C3=O)c2c1`, which TGI (A498 renal) is on record?
Answer: 18.2 µM

Question: What about the TGI (HT29 colon) of the same compound?
Answer: > 100 µM

Question: And the TGI (RPMI-8226 leukemia)?
Answer: > 100 µM

Question: What about the TGI (COLO 205 colon) of the same compound?
Answer: > 100 µM

Question: What about the TGI (RXF 393 renal) of the same compound?
Answer: 51.4 µM

Question: What about the TGI (NCI-H460 lung) of the same compound?
Answer: > 100 µM

Question: And the TGI (MDA-MB-231 breast)?
Answer: > 100 µM

Question: What about the TGI (MCF7 breast) of the same compound?
Answer: 10.9 µM

Question: And the TGI (DU-145 prostate)?
Answer: > 100 µM

Question: And the TGI (HOP-62 NSCLC)?
Answer: 41.4 µM

Question: And the TGI (IGROV1 ovarian)?
Answer: 20.1 µM

Question: What about the TGI (ACHN renal) of the same compound?
Answer: 24.8 µM

Question: What about the TGI (UO-31 renal) of the same compound?
Answer: 37.9 µM

Question: And the TGI (SR leukemia)?
Answer: 37.8 µM

Question: And the TGI (SK-MEL-2 melanoma)?
Answer: 43.7 µM

Question: What about the TGI (MOLT-4 leukemia) of the same compound?
Answer: 64.2 µM

Question: And the TGI (SNB-19 CNS)?
Answer: 31.2 µM

Question: And the TGI (OVCAR-5 ovarian)?
Answer: > 100 µM

Question: And the TGI (SF-268 CNS)?
Answer: 90.6 µM

Question: And the TGI (NCI/ADR-RES ovarian)?
Answer: > 100 µM

Question: What about the TGI (HS 578T breast) of the same compound?
Answer: > 100 µM

Question: What about the TGI (MDA-N) of the same compound?
Answer: > 100 µM

Question: And the TGI (NCI-H522 lung)?
Answer: 75.2 µM

Question: And the TGI (U251 CNS)?
Answer: 38.2 µM

Question: What about the TGI (OVCAR-8 ovarian) of the same compound?
Answer: 57 µM

Question: What about the TGI (OVCAR-3 ovarian) of the same compound?
Answer: 51.8 µM

Question: And the TGI (SN12C renal)?
Answer: > 100 µM

Question: And the TGI (HOP-92 NSCLC)?
Answer: > 100 µM

Question: And the TGI (786-0 renal)?
Answer: 19 µM

Question: And the TGI (T-47D breast)?
Answer: 77.5 µM

Question: What about the TGI (UACC-257 melanoma) of the same compound?
Answer: > 100 µM

Question: And the TGI (K-562 leukemia)?
Answer: > 100 µM

Question: What about the TGI (NCI-H23 lung) of the same compound?
Answer: > 100 µM

Question: And the TGI (SK-MEL-28 melanoma)?
Answer: > 100 µM

Question: And the TGI (HCT-15 colon)?
Answer: > 100 µM

Question: And the TGI (BT-549 breast)?
Answer: 72.8 µM

Question: And the TGI (KM12 colon)?
Answer: > 100 µM

Question: What about the TGI (M14 melanoma) of the same compound?
Answer: > 100 µM

Question: What about the TGI (UACC-62 melanoma) of the same compound?
Answer: 43.3 µM

Question: And the TGI (PC-3 prostate)?
Answer: 50.1 µM

Question: And the TGI (EKVX NSCLC)?
Answer: 24.2 µM

Question: What about the TGI (SK-OV-3 ovarian) of the same compound?
Answer: 41.5 µM

Question: And the TGI (CCRF-CEM leukemia)?
Answer: > 100 µM

Question: What about the TGI (SW-620 colon) of the same compound?
Answer: > 100 µM

Question: What about the TGI (HCT-116 colon) of the same compound?
Answer: 35.4 µM

Question: What about the TGI (NCI-H226 lung) of the same compound?
Answer: > 100 µM

Question: And the TGI (OVCAR-4 ovarian)?
Answer: 61.3 µM

Question: What about the TGI (MALME-3M melanoma) of the same compound?
Answer: > 100 µM

Question: What about the TGI (LOX IMVI melanoma) of the same compound?
Answer: > 100 µM

Question: What about the TGI (SF-295 CNS) of the same compound?
Answer: 61.2 µM

Question: And the TGI (TK-10 renal)?
Answer: 37 µM

Question: And the TGI (MDA-MB-435)?
Answer: > 100 µM

Question: And the TGI (SK-MEL-5 melanoma)?
Answer: 33.4 µM

Question: What about the TGI (HCC-2998 colon) of the same compound?
Answer: 53.2 µM

Question: And the TGI (SNB-75 CNS)?
Answer: 91.4 µM

Question: What about the TGI (CAKI-1 renal) of the same compound?
Answer: > 100 µM

Question: What about the TGI (A549 NSCLC) of the same compound?
Answer: 59.7 µM

Question: For `O=C(/C=C1\Sc2ccccc2N=C1CC(=O)c1ccccc1)c1ccccc1`, which TGI (A498 renal) is on record?
Answer: > 100 µM

Question: What about the TGI (HT29 colon) of the same compound?
Answer: 23.6 µM

Question: What about the TGI (RPMI-8226 leukemia) of the same compound?
Answer: 26.3 µM

Question: And the TGI (COLO 205 colon)?
Answer: 22.3 µM

Question: And the TGI (RXF 393 renal)?
Answer: > 100 µM

Question: And the TGI (NCI-H460 lung)?
Answer: 27.5 µM

Question: And the TGI (MDA-MB-231 breast)?
Answer: 41.8 µM

Question: What about the TGI (MCF7 breast) of the same compound?
Answer: > 100 µM

Question: What about the TGI (DU-145 prostate) of the same compound?
Answer: 89.1 µM

Question: And the TGI (HOP-62 NSCLC)?
Answer: 19.8 µM

Question: And the TGI (IGROV1 ovarian)?
Answer: 37.4 µM

Question: And the TGI (ACHN renal)?
Answer: 72.5 µM

Question: And the TGI (UO-31 renal)?
Answer: 31.5 µM

Question: And the TGI (SR leukemia)?
Answer: 16 µM

Question: What about the TGI (SK-MEL-2 melanoma) of the same compound?
Answer: 87.2 µM

Question: And the TGI (MOLT-4 leukemia)?
Answer: 24.7 µM

Question: What about the TGI (SNB-19 CNS) of the same compound?
Answer: > 100 µM

Question: What about the TGI (OVCAR-5 ovarian) of the same compound?
Answer: 61.4 µM

Question: And the TGI (SF-268 CNS)?
Answer: 45.8 µM

Question: And the TGI (NCI/ADR-RES ovarian)?
Answer: 18.7 µM

Question: What about the TGI (HS 578T breast) of the same compound?
Answer: > 100 µM

Question: What about the TGI (MDA-N) of the same compound?
Answer: > 100 µM

Question: And the TGI (NCI-H522 lung)?
Answer: 55.4 µM

Question: And the TGI (U251 CNS)?
Answer: 18.2 µM

Question: And the TGI (OVCAR-8 ovarian)?
Answer: 37 µM

Question: And the TGI (OVCAR-3 ovarian)?
Answer: 29.5 µM

Question: What about the TGI (HL-60(TB) leukemia) of the same compound?
Answer: 22.3 µM

Question: And the TGI (SN12C renal)?
Answer: 39.4 µM

Question: And the TGI (SF-539 CNS)?
Answer: 34.7 µM

Question: And the TGI (HOP-92 NSCLC)?
Answer: 21.6 µM

Question: And the TGI (786-0 renal)?
Answer: 21.7 µM

Question: What about the TGI (T-47D breast) of the same compound?
Answer: 75.5 µM

Question: And the TGI (UACC-257 melanoma)?
Answer: > 100 µM

Question: What about the TGI (K-562 leukemia) of the same compound?
Answer: 20 µM

Question: What about the TGI (NCI-H23 lung) of the same compound?
Answer: > 100 µM

Question: And the TGI (SK-MEL-28 melanoma)?
Answer: 57.2 µM

Question: What about the TGI (HCT-15 colon) of the same compound?
Answer: > 100 µM

Question: And the TGI (BT-549 breast)?
Answer: 37.9 µM

Question: What about the TGI (KM12 colon) of the same compound?
Answer: 24.5 µM

Question: And the TGI (M14 melanoma)?
Answer: 36.4 µM

Question: And the TGI (PC-3 prostate)?
Answer: > 100 µM

Question: What about the TGI (EKVX NSCLC) of the same compound?
Answer: 37.4 µM

Question: And the TGI (SK-OV-3 ovarian)?
Answer: 72 µM

Question: And the TGI (CCRF-CEM leukemia)?
Answer: 50 µM

Question: What about the TGI (SW-620 colon) of the same compound?
Answer: 22.5 µM

Question: And the TGI (HCT-116 colon)?
Answer: 19.2 µM

Question: And the TGI (NCI-H226 lung)?
Answer: 35.5 µM

Question: And the TGI (OVCAR-4 ovarian)?
Answer: 40.3 µM

Question: What about the TGI (MALME-3M melanoma) of the same compound?
Answer: 23 µM

Question: What about the TGI (LOX IMVI melanoma) of the same compound?
Answer: 21.2 µM

Question: And the TGI (SF-295 CNS)?
Answer: 24.7 µM

Question: What about the TGI (TK-10 renal) of the same compound?
Answer: 45.2 µM

Question: And the TGI (MDA-MB-435)?
Answer: 29.6 µM

Question: And the TGI (SK-MEL-5 melanoma)?
Answer: 19 µM

Question: And the TGI (HCC-2998 colon)?
Answer: 26.2 µM

Question: What about the TGI (CAKI-1 renal) of the same compound?
Answer: 34.1 µM

Question: And the TGI (A549 NSCLC)?
Answer: 25.1 µM
